Results from US9499590B2, “Antibodies against and methods for producing vaccines for respiratory syncytial virus” (MEDIMMUNE, LLC, priority 2009, dated 2016).

Assays:
MEDI-524 Mab = assay: Isothermal titration calorimetry (ITC) of F peptides with MEDI-524 Mab; type: binding; conditions: 25 mM His, pH 6, 10° C.
Description: Isothermal Titration calorimetry assays (ITC) have been described (see, for example, Heerklotz H et al., Biophysical Journal, May 1999). Molecular interactions are defined by stoichiometry and a few thermodynamic parameters. All binding reactions are associated with the absorption or generation of heat. Therefore calorimetry is emerging as a premier tool for the characterisation of interactions of biological macromolecules. ITC is the only method that measures equilibrium constants, enthalpy and entropy in one single experiment. If the experiment is performed at different temperatures the important parameter, the heat capacity change, can be determined. ITC has become a standard method for investigating the binding of ligands to receptor molecules. Accordingly, ligands are mixed with receptors, and the subsequent heats of incorporation (or binding) are measured.
To evaluate the binding properties of the wild-type peptide (SEQ ID NO.28) to Numax™/MEDI-524 by using the ITC technique. The MEDI-524 Mab was titrated with SEQ ID NO.28 in the basis buffer 25 mM His, pH 6 at 10° C. SEQ ID NO.28: (MW=2732.14, no W, Y, or C). A working solution of 55 μM was prepared by diluting 30 μL of a 5 mg/mL peptide solution with 970 μL, of 25 mM His, pH 6 buffer to be used for the ITC titrations. A 1.15 μM (0.1706 mg/ml) working solution of MEDI-524 was used for the experiments (MW 148400, A280=1.47). […]

MEDI-524 (Numax™) = assay: Binding ELISA of F-peptides; conditions: peptide coated on plate
Description: Based in part upon the results of the MARM analysis above, F peptides were synthesized (done by AnaSpec, Inc. San Jose, Calif.). Each well of the assay plate was coated with […] of […] of a particular soluble RSV F-Peptide overnight at 2-8° C. After the plate was aspirated and washed with PBS/0.05% Tween-20 buffer, it was blocked by incubating with PBS/0.05% Tween-20/0.5% BSA buffer for one hour at ambient temperature. The plate was washed and MEDI-524 standard curve samples, test samples, MEDI-524 Reference Standard, and negative control were added to the washed plate. Following a one-hour incubation at ambient temperature, the plate was washed, and […] of a goat anti-human IgG-HRP (horseradish peroxidase) at 1:16,000 dilution was added to the plate. After washing, […] of 3,3′,5,5′-tetramethylbenzidine (TMB) substrate was then added to the plate and incubated at ambient temperature protected from light for 10 minutes. The enzymatic reaction was stopped by adding […] of 2N H2SO4, and the absorbance at 450 nm was measured using a microplate reader. […] After meeting all system suitability requirements, as well as meeting the criteria of the parallelism test, the ED50 ratio of the test sample to Reference Standard was calculated, and the results were expressed as a percentage of the Reference Standard binding activity. […]

Substance	binding strength lower compared to the SEQ ID NO.24 peptide (MEDI-524 Mab)	Binding to Numax™ compared with wild-type F protein epitope (SEQ ID NO. 1) (MEDI-524 (Numax™))
NSELLSLINDMPITNDQKKLMSNN-NH2 [SEQ ID NO.28]	~3 orders of magnitude	
F peptide with a histidine at position 262: F peptide with a histidine at position 262; SEQ ID number not stated (SEQ ID No: 13, 25 and 26 carry it) (NSELLSLIHDMPITNDQKKLMSNN)		more tightly
